# In ChEMBL document CHEMBL3612067, “Synthesis of a series of unsaturated ketone derivatives as selective and reversible monoamine oxidase inhibitors” (Bioorg Med Chem, 2015):
# Legend:
# [1] = Effect on H2O2 scavenging activity of the compound up to 50 uM after 1.5 hrs by Amplex red/horseradish peroxidase detection method; format: physicochemical
# [2] = target: T1, Amine oxidase [flavin-containing] A (Homo sapiens, UniProt P21397)
# T1 sequence (P21397 whole entry): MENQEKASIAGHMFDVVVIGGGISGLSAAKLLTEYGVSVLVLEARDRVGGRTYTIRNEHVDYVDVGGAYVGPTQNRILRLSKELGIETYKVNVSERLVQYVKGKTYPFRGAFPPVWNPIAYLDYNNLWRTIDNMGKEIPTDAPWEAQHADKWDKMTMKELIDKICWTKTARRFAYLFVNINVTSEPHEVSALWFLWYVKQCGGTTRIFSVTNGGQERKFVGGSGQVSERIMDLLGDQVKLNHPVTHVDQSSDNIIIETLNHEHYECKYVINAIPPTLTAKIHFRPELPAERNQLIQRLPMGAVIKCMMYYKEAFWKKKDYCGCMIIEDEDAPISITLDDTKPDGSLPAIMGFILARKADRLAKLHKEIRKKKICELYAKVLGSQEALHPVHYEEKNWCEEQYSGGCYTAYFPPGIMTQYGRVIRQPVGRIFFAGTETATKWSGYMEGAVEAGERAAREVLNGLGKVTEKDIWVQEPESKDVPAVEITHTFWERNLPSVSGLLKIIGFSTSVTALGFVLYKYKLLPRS
# [3] = target: T2, Amine oxidase [flavin-containing] B (Homo sapiens, UniProt P27338)
# T2 sequence (P27338 whole entry): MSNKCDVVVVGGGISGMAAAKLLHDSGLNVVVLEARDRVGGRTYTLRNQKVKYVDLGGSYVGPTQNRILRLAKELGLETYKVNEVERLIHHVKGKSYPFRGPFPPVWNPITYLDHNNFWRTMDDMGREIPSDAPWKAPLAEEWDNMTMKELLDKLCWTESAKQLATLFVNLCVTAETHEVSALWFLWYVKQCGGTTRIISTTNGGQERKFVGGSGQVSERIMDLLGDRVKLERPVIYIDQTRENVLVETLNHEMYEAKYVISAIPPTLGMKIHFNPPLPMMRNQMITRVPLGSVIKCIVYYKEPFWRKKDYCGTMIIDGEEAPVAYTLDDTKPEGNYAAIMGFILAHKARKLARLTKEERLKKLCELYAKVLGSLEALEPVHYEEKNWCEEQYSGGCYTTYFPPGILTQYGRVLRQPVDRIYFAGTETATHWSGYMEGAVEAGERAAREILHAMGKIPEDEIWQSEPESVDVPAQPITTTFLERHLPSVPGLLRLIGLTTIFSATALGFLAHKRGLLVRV
# [4] = target: T2, Amine oxidase [flavin-containing] B; details: 0.5 h, read-out: INH
# [5] = target: T2, Amine oxidase [flavin-containing] B; assay: Reversible inhibition of recombinant human MAOB using benzylamine as substrate at 2 uM measured after 3 times washout of drug by Amplex red based spectrophotometric analysis
# [6] = Effect on H2O2 scavenging activity of the compound after 1.5 hrs by Amplex red/horseradish peroxidase detection method; format: physicochemical
Compound,Activity [1],IC50 [2] [µM],IC50 [3] [µM],inhibition at 2 µM [4] [%],inhibition (INH) [5],Activity [6]
COc1ccc(C(=O)/C=C/c2ccccc2F)cc1,Not Active,> 100,0.056,> 80,Active,–
COc1ccc(C(=O)/C=C/c2cccc(C(F)(F)F)c2)cc1,–,> 100,0.145,–,–,–
O=C(O[C@@H]1Cc2c(O)cc(O)cc2O[C@@H]1c1cc(O)c(O)c(O)c1)c1cc(O)c(O)c(O)c1 [EPIGALOCATECHIN GALLATE],–,–,–,–,–,Dose-dependent effect
"COc1ccc(/C=C/C(=O)c2ccc(OC)cc2)cc1 [4,4'-DIMETHOXYCHALCONE]",–,> 100,> 10,–,–,–
COc1ccc(C(=O)/C=C/c2ccccc2Cl)cc1,–,> 100,0.069,–,–,–
COc1ccccc1C(=O)/C=C/c1ccccc1,–,> 100,> 10,–,–,–
COc1ccc(NC(=O)/C=C/c2ccccc2C(F)(F)F)cc1,–,> 100,> 10,–,–,–
O=C(/C=C/c1ccc(C(F)(F)F)cc1)Nc1cccc(F)c1,–,> 100,0.283,–,–,–
COc1ccc(C(=O)/C=C/c2cccc(OC)c2)cc1,–,> 100,1.4,–,–,–
O=C(/C=C/c1ccccc1Cl)Nc1ccc(O)cc1,–,16.7,> 10,–,–,–
COc1ccc(NC(=O)/C=C/c2ccccc2Cl)cc1,–,> 100,> 10,–,–,–
O=C(/C=C/c1cccc(C(F)(F)F)c1)Nc1cccc(F)c1,–,> 100,4.89,–,–,–
COc1ccc(C(=O)/C=C/c2ccccc2)cc1 [4'-METHOXYCHALCONE],–,> 100,0.471,–,–,–
O=C(/C=C/c1ccc(C(F)(F)F)cc1)Nc1ccccc1F,–,> 100,0.58,–,–,–
COc1cccc(C(=O)/C=C/c2ccccc2)c1,–,> 100,0.793,–,–,–
O=C(/C=C/c1ccccc1Cl)Nc1ccccc1,–,> 100,2.82,–,–,–
COc1ccc(C(=O)/C=C/c2ccccc2OC)cc1,–,> 100,0.419,–,–,–

Compound,Activity [1],IC50 [2] [µM],IC50 [3] [µM],inhibition at 2 µM [4] [%],inhibition (INH) [5],Activity [6]
COc1ccc(C(=O)/C=C/c2ccc(C(F)(F)F)cc2)cc1,–,> 100,0.199,–,–,–
COc1cccc(C(=O)/C=C/c2ccccc2C(F)(F)F)c1,–,> 100,2.12,–,–,–
O=C(/C=C/c1ccccc1C(F)(F)F)Nc1cccc(O)c1,–,> 100,5.98,–,–,–
COc1ccc(C(=O)/C=C/c2ccccc2C(F)(F)F)cc1,Not Active,> 100,0.016,> 80,Active,–
COc1ccccc1C(=O)/C=C/c1ccccc1C(F)(F)F,–,> 100,0.253,–,–,–
O=C(/C=C/c1ccccc1C(F)(F)F)c1ccc(O)cc1,–,> 100,0.057,–,–,–
O=C(/C=C/c1ccccc1C(F)(F)F)Oc1ccccc1,–,> 100,5.88,–,–,–
COc1ccc(OC(=O)/C=C/c2ccccc2C(F)(F)F)cc1,–,> 100,2.59,–,–,–
O=C(/C=C/c1ccccc1C(F)(F)F)Nc1ccc(O)cc1,–,9.22,> 10,–,–,–
O=C(/C=C/c1ccccc1C(F)(F)F)Nc1ccccc1,–,> 100,8.39,–,–,–
O=C(/C=C/c1ccc(C(F)(F)F)cc1)Nc1ccc(F)cc1,–,> 100,0.223,–,–,–
O=C(/C=C/c1ccccc1C(F)(F)F)Nc1cccc(F)c1,–,> 100,3.37,–,–,–
COc1ccccc1/C=C/C(=O)c1ccc(O)cc1,–,> 100,0.624,–,–,–
C[C@H](NCc1ccc(OCc2cccc(F)c2)cc1)C(N)=O [SAFINAMIDE],–,–,–,–,Not Active,–
COc1ccc(OC(=O)/C=C/c2ccccc2Cl)cc1,–,> 100,0.937,–,–,–
O=C(/C=C/c1ccccc1Cl)Nc1cccc(O)c1,–,> 100,5.21,–,–,–
